Data reported in publication PMC6193938, “Characterization of a novel AICARFT inhibitor which potently elevates ZMP and has anti-tumor activity in murine models” (Scientific Reports, 2018).

Assays:
[1] = test system: MDA-MB-231met2 and NCI-H460 tumors; assay: Tumor volume versus tumor ZMP levels, three parameter logistic fit; type: in vivo, mouse; conditions: individual animal data after LSN3213128 treatment, read-out: IC50 of tumor ZMP level for tumor volume
From the text: The levels of total AMPKα and P70S6K are also shown. […] The levels of total AMPKα are also shown. […] Full images and the croppings used in this figure are shown in Supplemental Figures S14–S21.
Tumor volume decreases with increasing ZMP; however, in these solid tumors there was no evidence for AMPK activation, either using AMPK phosphorylation at T172 or downstream measures at P70S6K T389. Salvage of purines in vivo may explain the absence of purine changes; therefore, we measured levels of hypoxanthine for mouse plasma to be 0.36 ± 0.02 μM (n = 5) which was lower than that reported by Slowiaczek et al.[23]. We also quantified hypoxanthine in human plasma, finding the levels were 2.07 ± 0.01 μM (n = 5), well within the 0.45–34 μM range reported in the literature[19],[23]–[29].

MTHFD1 = molecular target: T1, MTHFD1 (Homo sapiens, UniProt P11586); assay: Folate dependent enzyme assay, NADPH (NAD(P)H-Glo); type: biochemical; conditions: read-out: Positive Control, IC50
T1 construct: made in house; host or cells: E. coli BL21 (DE3)
T1 sequence (P11586 whole entry): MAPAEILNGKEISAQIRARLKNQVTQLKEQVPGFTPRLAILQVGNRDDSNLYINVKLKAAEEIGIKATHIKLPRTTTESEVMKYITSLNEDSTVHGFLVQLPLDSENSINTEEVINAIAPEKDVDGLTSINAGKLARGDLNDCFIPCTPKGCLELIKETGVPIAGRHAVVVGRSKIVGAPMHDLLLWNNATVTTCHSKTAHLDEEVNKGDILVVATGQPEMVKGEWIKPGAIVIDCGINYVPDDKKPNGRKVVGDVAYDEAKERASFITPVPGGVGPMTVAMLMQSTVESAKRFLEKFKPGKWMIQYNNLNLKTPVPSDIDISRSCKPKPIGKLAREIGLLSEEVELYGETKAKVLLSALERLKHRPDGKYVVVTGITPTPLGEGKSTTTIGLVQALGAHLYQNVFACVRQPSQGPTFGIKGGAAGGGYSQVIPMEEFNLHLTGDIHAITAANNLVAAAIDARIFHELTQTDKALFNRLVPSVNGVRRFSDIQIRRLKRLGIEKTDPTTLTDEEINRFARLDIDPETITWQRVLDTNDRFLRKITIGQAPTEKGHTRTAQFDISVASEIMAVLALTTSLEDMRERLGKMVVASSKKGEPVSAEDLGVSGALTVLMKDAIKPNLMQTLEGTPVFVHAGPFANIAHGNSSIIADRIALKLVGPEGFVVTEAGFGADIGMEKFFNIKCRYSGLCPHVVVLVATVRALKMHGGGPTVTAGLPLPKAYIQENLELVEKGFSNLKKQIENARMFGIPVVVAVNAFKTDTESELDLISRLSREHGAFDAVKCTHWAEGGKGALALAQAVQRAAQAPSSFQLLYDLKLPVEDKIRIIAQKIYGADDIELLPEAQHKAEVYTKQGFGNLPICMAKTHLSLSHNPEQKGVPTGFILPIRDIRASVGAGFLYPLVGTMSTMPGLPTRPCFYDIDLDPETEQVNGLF

SHMT1 = SHMT1 (Homo sapiens, UniProt P34896); assay: Folate dependent enzyme assay, glycine derivatized with Marfey's reagent (HPLC); type: biochemical; conditions: read-out: Positive Control, IC50
Chain of SHMT1 (P34896 whole entry): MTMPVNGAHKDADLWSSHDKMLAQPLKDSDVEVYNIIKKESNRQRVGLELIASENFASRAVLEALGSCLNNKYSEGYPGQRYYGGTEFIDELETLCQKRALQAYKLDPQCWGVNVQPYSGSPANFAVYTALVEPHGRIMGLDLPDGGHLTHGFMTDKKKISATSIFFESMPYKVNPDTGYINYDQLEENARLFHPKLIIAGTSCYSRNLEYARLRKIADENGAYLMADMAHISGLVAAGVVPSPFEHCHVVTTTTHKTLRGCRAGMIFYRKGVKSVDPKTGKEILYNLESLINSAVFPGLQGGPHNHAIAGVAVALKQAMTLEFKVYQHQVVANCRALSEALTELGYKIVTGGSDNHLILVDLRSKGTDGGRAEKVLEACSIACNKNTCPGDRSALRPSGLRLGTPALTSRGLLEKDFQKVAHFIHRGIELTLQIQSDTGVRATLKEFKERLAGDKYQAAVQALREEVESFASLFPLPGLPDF
Protocol: (§1) The human MTHFD2 (accession number: NM_006636.3) and MTHFD2L (accession number: NM_001144978.1) cDNAs were synthesized at GenScript. […] Bacterial BL21 (DE3) (Novagen) was used as an expression host, and protein purification is described in supplemental material.
(§2) Catalytic activity was assayed under the listed reaction conditions using a liquid chromatograph and either fluorescence or mass spectrometric detection as indicated. Reactions were carried out at RT for the reaction times given. The % response was fit to a four-parameter logistic equation using ACTIVITYBASE 4.0 to determine IC50 values.

ATIC (AICARFT) = ATIC (AICARFT) (Homo sapiens, UniProt P31939); assay: Folate dependent enzyme assay, conversion of ZMP to IMP (LC-MS); type: biochemical; conditions: read-out: Positive Control, IC50
Chain of ATIC (AICARFT) (P31939 whole entry): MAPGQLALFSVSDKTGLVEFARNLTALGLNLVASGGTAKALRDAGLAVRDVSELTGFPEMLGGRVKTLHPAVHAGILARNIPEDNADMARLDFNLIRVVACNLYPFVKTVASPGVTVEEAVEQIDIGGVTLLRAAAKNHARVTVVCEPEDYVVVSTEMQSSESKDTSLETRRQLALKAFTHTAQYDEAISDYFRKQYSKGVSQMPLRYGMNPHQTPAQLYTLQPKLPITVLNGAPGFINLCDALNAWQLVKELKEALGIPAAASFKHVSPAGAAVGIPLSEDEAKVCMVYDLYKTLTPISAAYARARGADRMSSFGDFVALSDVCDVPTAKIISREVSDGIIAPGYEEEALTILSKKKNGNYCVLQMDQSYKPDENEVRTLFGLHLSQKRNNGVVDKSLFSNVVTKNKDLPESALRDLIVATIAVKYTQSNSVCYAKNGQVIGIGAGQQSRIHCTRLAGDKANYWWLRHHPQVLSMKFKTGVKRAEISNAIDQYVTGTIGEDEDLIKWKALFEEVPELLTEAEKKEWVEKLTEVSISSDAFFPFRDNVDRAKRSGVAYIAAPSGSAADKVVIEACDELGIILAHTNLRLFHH
Protocol: as §1, §2

MTHFD2 = MTHFD2 (Homo sapiens, UniProt P13995); assay: Folate dependent enzyme assay, NADH (NAD(P)H-Glo); type: biochemical; conditions: read-out: Positive Control, IC50
Chain of MTHFD2 (P13995 32-350): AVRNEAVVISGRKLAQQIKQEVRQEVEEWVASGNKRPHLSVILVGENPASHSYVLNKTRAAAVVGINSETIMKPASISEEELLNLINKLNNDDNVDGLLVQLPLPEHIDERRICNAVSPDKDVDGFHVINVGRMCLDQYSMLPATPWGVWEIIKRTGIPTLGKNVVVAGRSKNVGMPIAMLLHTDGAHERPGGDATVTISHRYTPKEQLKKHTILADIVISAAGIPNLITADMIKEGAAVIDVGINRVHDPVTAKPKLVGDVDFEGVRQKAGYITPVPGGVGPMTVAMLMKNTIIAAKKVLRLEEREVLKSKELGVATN

MTHFD2L = MTHFD2L (Homo sapiens, UniProt Q9H903); assay: Folate dependent enzyme assay, NADH (NAD(P)H-Glo); type: biochemical; conditions: read-out: Positive Control, IC50
Chain of MTHFD2L (Q9H903 46-347): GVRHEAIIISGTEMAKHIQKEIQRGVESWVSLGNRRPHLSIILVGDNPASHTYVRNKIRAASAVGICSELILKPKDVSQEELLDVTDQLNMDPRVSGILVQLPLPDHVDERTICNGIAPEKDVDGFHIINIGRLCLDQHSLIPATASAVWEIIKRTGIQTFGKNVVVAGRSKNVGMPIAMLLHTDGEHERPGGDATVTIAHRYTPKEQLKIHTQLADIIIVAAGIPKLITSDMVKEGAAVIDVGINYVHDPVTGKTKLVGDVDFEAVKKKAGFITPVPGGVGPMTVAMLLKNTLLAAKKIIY

NCI-H460 (lung) = assay: MS detection of ZMP in cultured cells; type: cell-based, human; conditions: NCI-H460; data not shown
Protocol: Cells lines were acquired from cell banks, see supplemental material, grown using the cell banks recommended culture conditions (Supplemental Table 3). In some experiments noted “low folate” the cells were washed and grown in folate free RPMI-1640 media (Gibco #27016-021) supplemented with 5 ml 1 M Hepes, 5 ml 100 mM Na pyruvate, 2.5 mg/ml glucose and 10% defined FBS (Hyclone #SH30070) per 500 mL media for 5–7 days to deplete intracellular folate levels prior to the start of the experiment. Where noted, cells were maintained in complete “high folate” RPMI-1640 media (ATCC #30-2001) with 10% defined FBS to contrast with the low folate conditions.
ZMP was detected in cultured cells via mass spec analysis. Cells were plated in 96-well plates at 25,000 cells per well in 100 µL with either high or low folate RPMI media and incubated overnight at 37 °C with 5% CO2. Cells were treated with inhibitor compounds for 16 hours, 0.5% DMSO final concentration. Growth media was decanted and cells were lysed for 10 min at room temperature with 50 µL per well of 1x Sure Fire Lysis buffer (Perkin Elmer, SureFire kit component). Aliquots (40 µL) of standard or sample were combined in a deep 96-well plate with 160 µL of internal standard solution containing ^13C5-ZMP (custom synthesis) and ^13C5-AICAr (custom synthesis) at 100 ng/mL in 40 mM ammonium acetate, pH 4. 400 µL of dichloromethane was added to each sample. Samples were sealed, vortexed for 5 minutes, and placed in the refrigerator for at least 30 minutes. The samples were centrifuged at 4 °C for 10 minutes at 16,600 g. 75 µL of the aqueous layer were transferred to a clean 96-well plate and seal prior to analysis.
The LC-MS method utilizes a Shimadzu Prominence 20 A HPLC system connected to an AB Sciex 5500™ or an AB Sciex 6500™ triple quadrupole mass spectrometer. Extracted samples were separated using a Thermo Hypercarb™ Javelin guard column (2.1 × 20 mm, 5 µm) with an injection volume of 15 µL and a flow rate of 1 mL/minute.
ZMP, AICAr and dUMP were detected using positive ion TurboIonSpray® multiple reaction monitoring mode and the data were processed with AB Sciex MultiQuant™. Back-calculated ZMP concentrations were fit to a four-parameter logistic equation using ACTIVITYBASE 4.0 to determine EC50 values relative to the maximum observed metabolite levels.

A9 cells = assay: MS detection of ZMP and dUMP in cultured cells; type: cell-based, murine; conditions: A9; data not shown
Protocol: To mimic human plasma levels, low folate media is traditionally used in which the folate comes only from the defined fetal bovine serum. […] Because LSN3213128 would be dosed in mice on normal diet, cell line screening was performed under standard tissue culture conditions to identify cell lines sensitive to treatment under high folate conditions. In order to compare tissue culture values with tumor levels, an average 4 pL cell volume[36] was used to calculate cellular ZMP concentrations. In MDA-MB-231[…] cells using regular RPMI, the peak intracellular ZMP levels are about 770 μM while in the salvage deficient A9 cells ZMP is 6,500 μM. […] It is not surprising that in vivo in mice on standard chow where folate plasma levels are >10-fold lower than tissue culture that tumor ZMP levels are also lower. […] ZMP was detected in cultured cells via mass spec analysis. Cells were plated in 96-well plates at 25,000 cells per well in 100 μL with either high or low folate RPMI media and incubated overnight at 37 °C with 5% CO2. Cells were treated with inhibitor compounds for 16 hours, 0.5% DMSO final concentration. Growth media was decanted and cells were lysed for 10 min at room temperature with 50 μL per well of 1x Sure Fire Lysis buffer (Perkin Elmer, SureFire kit component). […] Samples were sealed, vortexed for 5 minutes, and placed in the refrigerator for at least 30 minutes. The samples were centrifuged at 4 °C for 10 minutes at 16,600 g. 75 μL of the aqueous layer were transferred to a clean 96-well plate and seal prior to analysis. The LC-MS method utilizes a Shimadzu Prominence 20 A HPLC system connected to an AB Sciex 5500TM or an AB Sciex 6500TM triple quadrupole mass spectrometer. […] […] dUMP were detected using positive ion TurboIonSpray® multiple reaction monitoring mode and the data were processed with AB Sciex MultiQuantTM. Back-calculated ZMP concentrations were fit to a four-parameter logistic equation using ACTIVITYBASE 4.0 to determine EC50 values relative to the maximum observed metabolite levels.

SMILES: NC(=O)c1ncn([C@@H]2O[C@H](COP(=O)(O)O)[C@@H](O)[C@H]2O)c1N [ZMP, 5-aminoimidazole 4-carboxamide ribonucleotide]
- IC50 [1]: 108 ± 78 µM

SMILES: Nc1nc2[nH]cc(CCCc3ccc(C(=O)N[C@@H](CCC(=O)O)C(=O)O)cc3)c2c(=O)[nH]1 [N-({4-[3-(2-AMINO-4-HYDROXY-7H-PYRROLO[2,3-D]PYRIMIDIN-5-YL)PROPYL]PHENYL}CARBONYL)-L-GLUTAMIC ACID]
- IC50 (MTHFD1): 5.6 µM
- IC50 (SHMT1): 10.1 µM
- IC50 (ATIC (AICARFT)): 9.2 µM
- IC50 (MTHFD2): 1.4 µM
- IC50 (MTHFD2L): 8.6 µM

SMILES: Nc1nc2c(c(=O)[nH]1)C[C@@H](CCc1ccc(C(=O)N[C@@H](CCC(=O)O)C(=O)O)cc1)CN2 [lometrexol, reference compound]
- effect on ZMP (NCI-H460 (lung)): inhibits ZMP
- effect on ZMP (A9 cells): inhibits ZMP
